Patent US20250170101A1, “MONOACYLGLYCEROL LIPASE INHIBITORS AND USE THEREOF FOR THE TREATMENT AND MANAGEMENT OF PAIN AND RELATED CONDITIONS” (Psy Therapeutics, Inc., priority 2021, published 2025)

Columns and labels:
human recombinant FAAH = target: T1, human recombinant FAAH (Homo sapiens, UniProt O00519); assay: FAAH counter screen (Cayman FAAH Inhibitor Screening Assay Kit), Example 21; format: biochemical
T1 construct: purchased Cayman kit Item No. 10005196; FAAH enzyme 700302
T1 sequence (O00519 1-579): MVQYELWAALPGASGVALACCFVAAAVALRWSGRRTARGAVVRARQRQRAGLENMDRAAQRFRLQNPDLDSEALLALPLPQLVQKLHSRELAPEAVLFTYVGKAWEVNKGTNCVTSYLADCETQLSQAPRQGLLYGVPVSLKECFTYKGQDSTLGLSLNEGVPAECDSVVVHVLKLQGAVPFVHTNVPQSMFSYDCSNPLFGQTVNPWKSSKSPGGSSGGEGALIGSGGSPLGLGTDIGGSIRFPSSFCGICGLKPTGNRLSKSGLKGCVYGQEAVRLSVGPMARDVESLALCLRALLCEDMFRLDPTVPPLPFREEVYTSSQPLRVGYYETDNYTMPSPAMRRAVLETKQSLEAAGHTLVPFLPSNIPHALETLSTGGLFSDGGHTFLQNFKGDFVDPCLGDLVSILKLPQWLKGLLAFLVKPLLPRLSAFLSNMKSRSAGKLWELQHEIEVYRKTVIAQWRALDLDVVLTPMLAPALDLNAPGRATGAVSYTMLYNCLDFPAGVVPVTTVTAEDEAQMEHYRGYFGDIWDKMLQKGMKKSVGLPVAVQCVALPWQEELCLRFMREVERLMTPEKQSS
Method: Comparative compound potency at FAAH can be obtained with the following assay.
MAGL inhibitor compounds were also counter-screened for FAAH inhibition potency using the following assay. Assessment of FAAH inhibition was performed using Fatty Acid Amide Hydrolase Inhibitor Screening Assay Kit (Cayman Item No. 10005196) following manufacture's instruction with some modifications. The kit utilizes human recombinant FAAH and the fluorescent substrate, AMC Arachidonoyl amide (AAMCA). 5 μL of assay buffer (125 mM Tris, pH 9.0, 1 mM EDTA, i.e. ethylenediaminetetraacetic acid) was added to a 384-well black plate (Corning, 3573). Test compounds and control inhibitor JZL-195 (Cayman Chemical, 13668) were tested in 10-concentration IC50 mode with 3-fold serial dilution at a starting concentration of 100 μM and 10 μM, respectively. 300 nL or 30 nL of test compounds were delivered into a 384-well black plate (Corning, 3573) using a Labcyte Echo, followed by addition of 15 μL of FAAH enzyme (Cayman, 700302) in assay buffer. After a 5-minute pre-incubation at room temperature, 10 μL of AAMCA was added in assay buffer to start the reaction. Final concentration of FAAH enzyme is not specified and AAMCA substrate was used at the 20 uM. After these dilutions, the final concentration of the test compounds ranged from 100 μM to 5.08 nM or 10 μM down to 0.508 nM. The reaction was allowed to progress for 60 minutes, while the plate was read on an Envision plate reader at an Ex/Em of 350/460 nm with readings every minute. The data was analyzed in Microsoft Excel, using the slope between 30 and 59 minutes. The average of the no-enzyme wells (background) was subtracted from the data. The background-subtracted slope data was converted to % activity using the average of wells with enzyme and DMSO vehicle. IC50 values were calculated using GraphPad software (Sigmoidal dose response, variable slope equation).
Compounds listed in Table D2 were tested in the FAAH Counterscreen of Example 21

MAGL enzyme = target: T2, MAGL enzyme (Homo sapiens, UniProt Q99685); assay: MAGL reversible inhibition assay (washout), Example 22; format: biochemical; set-up: % MAGL activity returning after washout: concentration or dose not given beside the values; conditions: for degree to which MAGL enzymatic activity returned following washout of test compounds: pre-washout compound concentration 1 μM; for % MAGL activity returning after washout: relative to control (no inhibitor before washout), immediately following 30 minute washout
T2 sequence (Q99685 1-303): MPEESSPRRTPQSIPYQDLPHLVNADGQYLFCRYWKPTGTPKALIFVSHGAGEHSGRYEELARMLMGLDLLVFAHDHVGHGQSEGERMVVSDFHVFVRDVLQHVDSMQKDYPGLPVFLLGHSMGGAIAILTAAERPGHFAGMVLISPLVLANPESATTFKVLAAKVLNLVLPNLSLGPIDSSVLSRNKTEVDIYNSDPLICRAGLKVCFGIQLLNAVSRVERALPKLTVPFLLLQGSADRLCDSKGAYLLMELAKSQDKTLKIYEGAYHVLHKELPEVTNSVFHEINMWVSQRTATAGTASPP
Method: The reversible mechanism of MAGL inhibition of a test compound of Formula (I) can be determined. Flag-tagged MAGL enzyme will be immobilized on anti-Flag beads. Immobilized enzyme will be incubated+/−inhibitor at a dose that produces complete inhibition. Colorimetric substrate (4-NPA) will be added and the reaction monitored on a plate reader for 30 minutes to verify complete inhibition. Immobilized enzyme will then be washed thoroughly to remove the inhibitor, and fresh substrate will be added. The reaction will be monitored for an additional 30 minutes; returning enzymatic activity will indicate reversibility of inhibition. […]
For some test compounds, % activity returning after washout may be less than 100%/if complete compound unbinding takes longer than 30 minutes.

[1] = test system: Acute Post-Operative Pain (Brennan) mice model; assay: Acute Post-Operative Pain (Brennan) mice model, Example 26; format: in vivo, Mus Musculus C57BL/6; conditions: 40 mg/kg, IP
Text: The aim of this experiment was to evaluate effect of the test compounds Compound 74 and JZL-184 in Acute Post-Operative Pain (Brennan) mice model. • Mouse model: Mus Musculus & C57BL/6, male, 6-8 weeks • End points: mechanical allodynia and brain 2-AG (optional)
(§1) • Animals was anaesthetized under Isoflorane anesthesia. • Using aseptic conditions, prepared the plantar aspect of left hind paw with a 10% povidone-iodine solution and place the paw through a hole in a sterile cloth drape. Made a 0.5-cm longitudinal incision through skin and fascia of the paw with a no. 11 scalpel blade, beginning 0.2 cm from the proximal edge of the heel and extending toward the digits. • Elevated the underlying muscle with small curved forceps and incised longitudinally with the scalpel blade, keeping the muscle origin and insertion intact. • After homeostasis with gentle pressure, apposed the skin with 5-0 slik sutures. Cover the wound site.

[2] = test system: Post-Operative Pain (Brennan) mouse model; assay: Chronic treatment in Post-Operative Pain (Brennan) mouse model, Example 27; format: in vivo, Mus Musculus C57BL/6; conditions: 40 mg/kg, IP, single dose
Text: The aim of this experiment was to evaluate effect of the test compounds Compound 74 and JZL-184 in after Chronic treatment in a Post-Operative Pain (Brennan) mouse model. • Mouse model: Mus Musculus & C57BL/6, male, 6-8 weeks • End points: mechanical allodynia and body weight
as §1

[3] = Method A: starting concentration of 100 μM

Row | Structure (SMILES) | IC50 (human recombinant FAAH; [3]) | degree to which MAGL enzymatic activity returned following washout of test compounds (MAGL enzyme) | % MAGL activity returning after washout (MAGL enzyme) | further results
1 | Cc1cc(C2CC3(C2)CN(C(=O)c2c(F)ccc(O)c2F)C3)n(-c2ccccc2C)n1 [Compound 127, (2,6-difluoro-3-hydroxyphenyl)(6-(3-methyl-1-(o-tolyl)-1H-pyrazol-5-yl)-2-azaspiro[3.3]heptan-2-yl)methanone] | > 10000 nM | – | – | –
2 | O=C(c1cc(O)ccc1F)N1CC2(CC(n3cc(C4CC4)c(-c4ccccc4F)n3)C2)C1 [Compound 493] | – | 47 | <50% | IC50 (human recombinant FAAH; Method B: starting concentration of 10 μM): > 10000 nM
3 | O=C(Oc1ccc([N+](=O)[O-])cc1)N1CCC(C(O)(c2ccc3c(c2)OCO3)c2ccc3c(c2)OCO3)CC1 [JZL-184, reference compound] | – | complete lack of return of MAGL enzymatic activity | <1% | mechanical allodynia (Threshold, g) vs Vehicle control ([1]; at 30, 60 & 90 min): significant decrease in mechanical allodynia; Clinical observation ([1]; post IP administration): mild hypolocomotion; mechanical allodynia (Threshold, g) vs Vehicle control [2]: significant decrease in mechanical allodynia
4 | O=C(Oc1ccc([N+](=O)[O-])cc1)N1CCN(Cc2cccc(Oc3ccccc3)c2)CC1 [reference compound] | 459 nM | – | – | –
5 | O=C(Nc1cccnc1)N1CCC(Cc2cccc(Oc3ccc(C(F)(F)F)cn3)c2)CC1 [reference compound] | 14 nM | – | – | –
